From US20210337838A1, “RECOMBINANT EXPRESSION OF FUMONISIN AMINE OXIDASE” (priority 2018, published 2021)
Read-outs that look alike come from different tables or passages of the source.

Experiments:
AnFAO_15309 [1] = target: T1, AnFAO_15309 (Aspergillus niger, UniProt A2R252); type: biochemical; details: 20 nM enzyme, 50 μM substrate, pH 7.0, 1 hr
Protocol: (§1) Absorbance was monitored at 571 nm every 10 mins for 1 hr. A standard curve consisting of 0-10 μM H2O2 was included to determine the absorbance for every μmol of H2O2 generated by the reaction.

AnFAO_15309 [2] = target: T1, AnFAO_15309; experiment: Kinetic analysis of recombinant AnFAO_15309; type: biochemical
Protocol: as §1
The resulting mixture was twice extracted with equal volumes of ethyl acetate, dried, and re-suspended in reaction buffer.

[3] = tested on: fumonisin deamination activity from A. niger culture supernatants; experiment: Fumonisin chemotype preference of deamination activity, reverse-phase LC-MS; type: biochemical, Aspergillus niger; details: for initial conversion rate of intact to deaminated fumonisin: FB1 and FB2 co-incubated at 37° C. with active sample following high-resolution ion exchange, n=2
Protocol: After each step, protein fractions were assayed for deamination activity by monitoring their ability to convert intact FB2 into FPy2 via reverse-phase liquid chromatography/mass spectrometry (LC-MS), as shown in FIG. 2. In particular, all MS data were collected with a Q-Exactive™ Quadrupole Orbitrap™ mass spectrometer (Thermo Scientific, MA, USA) coupled to an Agilent 1290 ultra-high-performance liquid chromatography (UHPLC) system. Fumonisins were resolved on a Zorbax™ Eclipse Plus Rapid Resolution High Definition (RRHD) C18 column (2.1×50 mm, 1.8 μm; Agilent Technologies, CA, USA), maintained at 35° C. The mobile phase was comprised of water with 0.1% formic acid (A), and acetonitrile with 0.1% formic acid (B) (Optima grade, Fisher Scientific, NJ, USA). The gradient consisted of 0% B for 0.5 min before increasing to 100% over 3 min, held at 100% for 2.5 min and reduced to 0% over 0.5 min. The fumonisins were detected in negative ionization mode using the following electrospray conditions: capillary voltage, 4.0 kV; capillary temperature, 400° C.; sheath gas, 17.00 units; auxiliary gas, 8.00 units; probe heater temperature, 450° C.; S Lens RF level, 45.00. The data-dependent acquisition method involved a full MS scan at 17,500 resolution over a scan range of 140-760 m/z; automatic gain control (AGC) target and maximum injection time (max IT) was 5×10^6 and 64 ms, respectively. The five highest intensity ions from the full scan (excluding isotopes) were sequentially selected using a 1.2 m/z isolation window and analyzed at a resolution of 17,500; AGC target, 1×10^5; max IT, 64 ms; normalized collision energy (NCE) 30; threshold intensity 9.1×10^4; and dynamic exclusion of 1.5 s. Fumonisins were detected by accurate mass (±5 ppm) and retention time (±0.1 min) and verified by MS/MS.
All samples assayed during protein purification were incubated at 37° C. with 1 μM FB2 (Sigma) unless stated otherwise. Reactions were terminated via addition of a 10-fold volume excess of 50% (v:v) methanol in water prior to reverse-phase LC/MS analysis represented in FIG. 2.

[4] = substrate: CCCCCCCCCCCCCCC[C@@H](O)[C@@H](N)CO; experiment: purified protein, by the assay type; details: other: recombinant AnFAO_15309; pH 7.0
[5] = substrate: CCCC[C@@H](C)[C@@H](O)[C@@H](O)C[C@@H](C)C[C@H](O)CCCC[C@@H](O)C[C@H](O)[C@H](C)N; experiment: purified protein, by the assay type; details: other: recombinant AnFAO_15309; pH 7.0
[6] = Amplex red assay of AnFAO homolog clones; type: biochemical
Excerpt: Seven of the AnFAO homologs were synthesized and cloned into the MBP-TEV vector for recombinant expression in E. coli.

[7] = Circular dichroism thermal denaturation; type: physicochemical; details: 0.3 mg/ml, 20 mM Tris-HCl (pH 7.4), 50 mM NaCl, 0.75 mM DTT, monitored at 222, 20 to 95° C.
Protocol: Activity was measured via reverse-phase LC/MS analysis. […] All proteins were scanned at a concentration of 0.3 mg/ml in buffer containing 20 mM Tris-HCl (pH 7.4), 50 mM NaCl and 0.75 mM DTT. Thermal denaturation was monitored at […] with a temperature scan ranging from 20 to 95° C., increasing by 1° C. per minute with data collection every 30 seconds. Baseline corrected data were converted from millidegrees to mean residue ellipticity, and thermal denaturation curves were produced by nonlinear regression in Graphpad Prism.

## N[C@H]1C(O)O[C@H](CO)[C@@H](O)[C@@H]1O (stereo partly drawn) [glucosamine]
AnFAO_15309 [1]
  relative activity, relative to FB3 (100% activity): 1.2%

## CCCC[C@@H](C)[C@@H](O)[C@@H](O)C[C@@H](C)C[C@H](O)CCCC[C@@H](O)C[C@H](O)[C@H](C)N [hFB1]
AnFAO_15309 [2]; kcat/KM relative to FB2 = 1.0
  fold change (efficiency compared to FB2): 4.6 fold
AnFAO_15309 [2]; recombinant AnFAO_15309
  kcat: 0.298 s⁻¹

## NCCc1ccc(O)c(O)c1 [dopamine]
AnFAO_15309 [1]
  relative activity, relative to FB3 (100% activity): 9.7%

## NCCCCNCCCN [spermidine]
AnFAO_15309 [1]
  relative activity, relative to FB3 (100% activity): 1.4%

## CCCCCCCCCCCCCCC[C@@H](O)[C@@H](N)CO [sphinganine]
AnFAO_15309 [2]
  fold change (efficiency compared to FB2): 16.6 fold
AnFAO_15309 [2]; recombinant AnFAO_15309
  kcat: 0.612 s⁻¹

## NCCCNCCCCNCCCN [spermine]
AnFAO_15309 [1]
  relative activity, relative to FB3 (100% activity): 1.9%

## CCCN [propylamine]
AnFAO_15309 [1]
  relative activity, relative to FB3 (100% activity): 5.6%

## CCCC[C@@H](C)[C@@H](OC(=O)CC(CC(=O)O)C(=O)O)[C@H](C[C@@H](C)C[C@H](O)CCCCCC[C@@H](O)[C@H](C)N)OC(=O)CC(CC(=O)O)C(=O)O (stereo partly drawn) [FB3]
AnFAO_15309 [1]
  relative activity, relative to FB3 (100% activity): 100%

## NCCc1c[nH]c2ccc(O)cc12 [serotonin]
AnFAO_15309 [1]
  relative activity, relative to FB3 (100% activity): 3.7%

## CCCC[C@@H](C)[C@@H](OC(=O)C[C@@H](CC(=O)O)C(=O)O)[C@H](C[C@@H](C)CCCCCC[C@@H](O)C[C@H](O)[C@H](C)N)OC(=O)C[C@@H](CC(=O)O)C(=O)O [FB2, fumonisin B2]
[3]
  initial conversion rate of intact to deaminated fumonisin: 24.3±1.5 % hr^−1
[3]; co-incubation of FB1 and FB2 at 37° C.
  chemotype preference for FB2 compared to FB1: order of magnitude
AnFAO_15309 [2]; kcat/KM relative to FB2 = 1.0
  fold change (efficiency compared to FB2): 1.0 fold
AnFAO_15309 [2]; recombinant AnFAO_15309
  Km: 195 µM
  kcat: 0.228 s⁻¹
AnFAO_15309 [2]; relative to FB1
  efficiency at deaminating FB2 compared to FB1: 3.2 fold
  increase in catalytic efficiency (kcat) FB2 vs. FB1: ~1.6 fold
  stronger affinity (KM) FB2 vs. FB1: ~2 fold

## NCCCC[C@H](N)C(=O)O [lysine]
AnFAO_15309 [1]
  relative activity, relative to FB3 (100% activity): 6.3%

## Fumonisin B1 [FB1]
[3]
  initial conversion rate of intact to deaminated fumonisin: 2.1±0.1 % hr^−1
AnFAO_15309 [2]; kcat/KM relative to FB2 = 1.0
  fold change (efficiency compared to FB2): 0.3 fold

## NCCc1ccc(O)cc1 [tyramine]
AnFAO_15309 [1]
  relative activity, relative to FB3 (100% activity): 5.8%

## NCc1ccccc1 [benzylamine]
AnFAO_15309 [1]
  relative activity, relative to FB3 (100% activity): 1.4%

B1: AnFAO_15309 (Aspergillus niger CBS 513.88) (protein)
chain: MSVSNDPTTKLYDAVIVGAGLSGLQAAHSIQAAGFSVCILEATDRMGGKTLTVKSSEKGYNDLGAAWVNDTNQTEIFKLHQRYGLDGVVQYTCGDDILESGEGVIRKIPYGLPLTGLPKKLLDILRIESSRLDLDDPTSFPGATEVDNLTFRDFCVEKTGSEDVIHITDAISTALLGLNSNELSALYMLYYFKSGSGIDNLLSDERDGAQYLRTRQGTQTIARKMADELTQSDIFLGMPVTSINQTDADAHCVVQTLDGSSFRCRRVIVSIPTTLYRSVSFHPPLPHAKQVLSDHTIMGYYSKVIFIFKEPWWRDAGLTGIVNCAGGPITFTRDTSVPTDDQWSITCFMVGSRGRAWSKLSKDDRYSQVWEQFRRCFEEFVENIPEPVNTLEMEWSKEPYFLGAPCPAMIPGLLTTAGSDLAAPHGKVHFIGTETSTVWRGYMEGAIRAGQRGGAEVVTALQED
[4]
  Km: 31.4 µM
  kcat: 0.612 s⁻¹
  kcat/Km: 19000 M⁻¹ s⁻¹
[5]
  Km: 55.2 µM
  kcat: 0.298 s⁻¹
  kcat/Km: 5400 M⁻¹ s⁻¹

B2: AnFAO_10927: AnFAO homolog clone, SEQ ID NO: 27 (protein)
chain: MSVSNDPTTKLYDAVIVGAGLSGLQAAHSIQAAGFSVCILEATDRVGGKTLTVKSSEKGYNDLGAAWVNDTNQTEIFKLHQRYGLDGVVQYTCGDDILESGEGVIRKIPYGLPLTGLPKKLLDILRIESSRLDLDDPTSFPGATEVDNLTFRDFCVEKTGSEDVIHITDAISTALLGLNSNELSALYMLYYFKSGSGIDNLLSDERDGAQYLRTRQGTQTIARKMADELSQSDIFLGMPVTSINQTDADAHCVVKTLDGSSFRCRRVIVSIPTTLYRSVSFHPPLPHAKQVLSDHTIMGYYSKVIFIFKEPWWRDAGLTGIVDCAGGPITFTRDTSVPTDDQWSITCFMVGSRGRAWSKLSKDDRYSQVWEQFRRFFEEFVENIPEPANTLEMEWSKEPYFLGAPCPAMIPGLLTTAGSDLAAPHGKVHFIGTETSTVWRGYMEGAIRAGQRGGAEVVTALQED
modifications: Aspergillus niger
[6]; 80 nM enzyme, 25 μM FB1, pH 7
  activity compared to 15309: 31%
[7]
  melting temperature: 76 °C

B3: AnFAO_7097: AnFAO homolog clone, SEQ ID NO: 29 (protein)
chain: MSVSNDPTTKLYDAVIVGAGLSGLQAAHSIQAAGFSVCILEATDRVGGKTLTVKSSEKGYNDLGAAWVNDTNQTEIFKLHQQYGLDGVVQYTCGDDILESGEGVIRKIPYGLPLTGLPKKLLDILRIESSRLDLDDPTSFPGATEVDNLTFRDFCVEKTGSEDVIHITDAISTALLGLNSNELSALYMLYYFKSGSGIDNLLSDERDGAQYLRTRQGTQTIARKMADELTQSDIFLGMPVTSINQTDADAHCVVQTLDGSSFRCRRVIVSIPTTLYRSVSFHPPLPHAKQVLSDHTIMGYYSKVIFIFKEPWWRDAGLTGIVDCAGGPITFTRDTSVPTDDQWSITCFMVGSRGRAWSKLSKDDRYSQVWEQFRRCLEGFVENIPEPANTLEMEWSKEPYFLGAPCPAMIPGLLTTTGSDLAAPHGKVHFIGTETSTVWRGYMEGAIRAGQRGGAEVVTALQED
modifications: Aspergillus niger
[6]; 80 nM enzyme, 25 μM FB1, pH 7
  activity compared to 15309: 27%

B4: AnFAO_6142: AnFAO homolog clone, SEQ ID NO: 28, identical to AnFAO_10929; substitutions M46V, R82Q, V267L vs AnFAO_15309 (protein)
chain: MSVSNDPTTKLYDAVIVGAGLSGLQAAHSIQAAGFSVCILEATDRVGGKTLTVKSSEKGYNDLGAAWVNDTNQTEIFKLHQQYGLDGVVQYTCGDDILESGEGVIRKIPYGLPLTGLPKKLLDILRIESSRLDLDDPTSFPGATEVDNLTFRDFCVEKTGSEDVIHITDAISTALLGLNSNELSALYMLYYFKSGSGIDNLLSDERDGAQYLRTRQGTQTIARKMADELTQSDIFLGMPVTSINQTDADAHCVVQTLDGSSFRCRRLIVSIPTTLYRSVSFHPPLPHAKQVLSDHTIMGYYSKVIFIFKEPWWRDAGLTGIVNCAGGPITFTRDTSVPTDDQWSITCFMVGSRGRAWSKLSKDDRYSQVWEQFRRCFEEFVENIPEPVNTLEMEWSKEPYFLGAPCPAMIPGLLTTAGSDLAAPHGKVHFIGTETSTVWRGYMEGAIRAGQRGGAEVVTALQED
modifications: Aspergillus niger
notes: substitutions M46V, R82Q, V267L vs AnFAO_15309
[6]; 80 nM enzyme, 25 μM FB1, pH 7
  activity compared to AnFAO_15309 (fold): 2.5 ×
[6]; relative to AnFAO_15309 = 1
  relative activity: (relative activity = 2.5):
[7]
  melting temperature: 76 °C
